According to publication PMC5218480 (PLoS ONE, 2017):

System: MV-4-11 cells
Test: Gene expression microarray analysis (Affymetrix PrimeView) and GSEA
Type: cell-based, human
Design: RFU PODN (11730768_x_at) / Fold change /veh PODN (11730768_x_at) / RFU LINC00158 (11744669_a_at) / Fold change /veh LINC00158 (11744669_a_at) / RFU DUSP10 (11751237_a_at) / Fold change /veh DUSP10 (11751237_a_at) / RFU ID3 (11757404_x_at) / Fold change /veh ID3 (11757404_x_at) / RFU PLEKHG5 (11737974_s_at) / Fold change /veh PLEKHG5 (11737974_s_at) / RFU LRRC4B (11730491_at) / Fold change /veh LRRC4B (11730491_at) / RFU GIMAP4 (11747438_a_at) / Fold change /veh GIMAP4 (11747438_a_at) / RFU KRT8 (11758183_x_at) / Fold change /veh KRT8 (11758183_x_at) / RFU CNN1 (11734310_a_at) / Fold change /veh CNN1 (11734310_a_at) / RFU VPS37D (11726825_at) / Fold change /veh VPS37D (11726825_at) / RFU C10orf10 (11716522_x_at) / Fold change /veh C10orf10 (11716522_x_at) / RFU KIR2DL2 /// KIR2DL4 /// KIR2DL5A /// KIR2DL5B /// KIR2DS1 /// KIR2DS2 /// KIR2DS3 /// KIR2DS4 /// KIR3DL3 /// KIR3DL3 /// KIR3DS1 (11738374_at) / Fold change /veh KIR2DL2 /// KIR2DL4 /// KIR2DL5A /// KIR2DL5B /// KIR2DS1 /// KIR2DS2 /// KIR2DS3 /// KIR2DS4 /// KIR3DL3 /// KIR3DL3 /// KIR3DS1 (11738374_at) / RFU C1QL1 (11718748_at) / Fold change /veh C1QL1 (11718748_at) / RFU TMPRSS4 (11747572_a_at) / Fold change /veh TMPRSS4 (11747572_a_at) / RFU HAMP (11756126_x_at) / Fold change /veh HAMP (11756126_x_at) / RFU RNFT2 (11725882_a_at) / Fold change /veh RNFT2 (11725882_a_at) / RFU NR4A2 (11747474_a_at) / Fold change /veh NR4A2 (11747474_a_at) / RFU ABCC12 (11746883_a_at) / Fold change /veh ABCC12 (11746883_a_at) / RFU TMEM136 (11760407_x_at) / Fold change /veh TMEM136 (11760407_x_at) / RFU CLDN22 /// WWC2 (11732394_at) / Fold change /veh CLDN22 /// WWC2 (11732394_at) / RFU HLA-DPB1 (11760878_x_at) / Fold change /veh HLA-DPB1 (11760878_x_at) / RFU SPINT1 (11716480_a_at) / Fold change /veh SPINT1 (11716480_a_at) / RFU GAP43 (11754022_s_at) / Fold change /veh GAP43 (11754022_s_at) / RFU A4GNT (11735810_at) / Fold change /veh A4GNT (11735810_at) / RFU PRB3 (11715151_x_at) / Fold change /veh PRB3 (11715151_x_at) / RFU TUBB4B (11761932_at) / Fold change /veh TUBB4B (11761932_at) / RFU CAPN14 (11732068_a_at) / Fold change /veh CAPN14 (11732068_a_at) / RFU TMCC2 (11721928_a_at) / Fold change /veh TMCC2 (11721928_a_at) / RFU IRGQ (11745062_a_at) / Fold change /veh IRGQ (11745062_a_at) / RFU FAM174B (11720279_a_at) / Fold change /veh FAM174B (11720279_a_at) / RFU TMPRSS4 (11748680_a_at) / Fold change /veh TMPRSS4 (11748680_a_at) / RFU FAM212B (11763350_a_at) / Fold change /veh FAM212B (11763350_a_at) / RFU PLEKHG5 (11743358_a_at) / Fold change /veh PLEKHG5 (11743358_a_at) / RFU ZSCAN30 (11745921_a_at) / Fold change /veh ZSCAN30 (11745921_a_at) / RFU CMKLR1 (11741424_a_at) / Fold change /veh CMKLR1 (11741424_a_at) / RFU LOC101060620 /// MAPK8IP1 (11723275_at) / Fold change /veh LOC101060620 /// MAPK8IP1 (11723275_at) / RFU SPTSSB (11747773_x_at) / Fold change /veh SPTSSB (11747773_x_at) / RFU PRSS12 (11739890_at) / Fold change /veh PRSS12 (11739890_at) / RFU BIN1 (11741810_x_at) / Fold change /veh BIN1 (11741810_x_at) / RFU WNT11 (11732464_a_at) / Fold change /veh WNT11 (11732464_a_at) / RFU C10orf10 (11716521_a_at) / Fold change /veh C10orf10 (11716521_a_at) / RFU C5orf56 (11738089_at) / Fold change /veh C5orf56 (11738089_at) / RFU CYB561 (11721691_x_at) / Fold change /veh CYB561 (11721691_x_at) / RFU ANKRD19P (11752326_a_at) / Fold change /veh ANKRD19P (11752326_a_at) / RFU OR2T12 /// OR2T33 /// OR2T8 (11738714_s_at) / Fold change /veh OR2T12 /// OR2T33 /// OR2T8 (11738714_s_at) / RFU VCAN (11748164_a_at) / Fold change /veh VCAN (11748164_a_at) / RFU JSRP1 (11732532_at) / Fold change /veh JSRP1 (11732532_at) / RFU KRTAP10-11 (11738290_x_at) / Fold change /veh KRTAP10-11 (11738290_x_at) / RFU MYO3A (11730013_a_at) / Fold change /veh MYO3A (11730013_a_at) / RFU EBF3 (11725865_a_at) / Fold change /veh EBF3 (11725865_a_at) / RFU CAMK2N1 (11719241_x_at) / Fold change /veh CAMK2N1 (11719241_x_at) / RFU C5orf56 (11738088_a_at) / Fold change /veh C5orf56 (11738088_a_at) / RFU OLFML3 (11715873_a_at) / Fold change /veh OLFML3 (11715873_a_at) / RFU LOC100653217 /// NTM (11731650_a_at) / Fold change /veh LOC100653217 /// NTM (11731650_a_at) / RFU MAPK11 (11762145_a_at) / Fold change /veh MAPK11 (11762145_a_at) / RFU FIZ1 (11724087_x_at) / Fold change /veh FIZ1 (11724087_x_at) / RFU OASL (11726364_x_at) / Fold change /veh OASL (11726364_x_at) / RFU SOX15 (11748057_x_at) / Fold change /veh SOX15 (11748057_x_at) / RFU CD79A (11719716_a_at) / Fold change /veh CD79A (11719716_a_at) / RFU HIST1H1D (11736915_at) / Fold change /veh HIST1H1D (11736915_at) / RFU CASKIN2 (11723855_a_at) / Fold change /veh CASKIN2 (11723855_a_at) / RFU LOC730098 (11760151_x_at) / Fold change /veh LOC730098 (11760151_x_at) / RFU OR4N2 (11742367_at) / Fold change /veh OR4N2 (11742367_at) / RFU PRRT2 (11749266_a_at) / Fold change /veh PRRT2 (11749266_a_at) / RFU SNX32 (11753110_a_at) / Fold change /veh SNX32 (11753110_a_at) / RFU CDHR5 (11726645_a_at) / Fold change /veh CDHR5 (11726645_a_at) / RFU RCAN1 (11760418_a_at) / Fold change /veh RCAN1 (11760418_a_at) / RFU FAM167A (11723789_a_at) / Fold change /veh FAM167A (11723789_a_at) / RFU FAM26E (11764081_at) / Fold change /veh FAM26E (11764081_at) / RFU ISYNA1 (11749810_s_at) / Fold change /veh ISYNA1 (11749810_s_at) / RFU ACY1 (11761880_at) / Fold change /veh ACY1 (11761880_at) / RFU 11764098_at / Fold change /veh 11764098_at / RFU SAMD14 (11745864_x_at) / Fold change /veh SAMD14 (11745864_x_at) / RFU NPB (11741838_a_at) / Fold change /veh NPB (11741838_a_at) / RFU TMPRSS6 (11731388_a_at) / Fold change /veh TMPRSS6 (11731388_a_at) / RFU KRTAP10-2 (11738614_at) / Fold change /veh KRTAP10-2 (11738614_at) / RFU ARHGAP8 /// PRR5-ARHGAP8 (11727945_x_at) / Fold change /veh ARHGAP8 /// PRR5-ARHGAP8 (11727945_x_at) / RFU KRTAP5-7 /// NADSYN1 (11734609_at) / Fold change /veh KRTAP5-7 /// NADSYN1 (11734609_at) / RFU RASL12 (11751679_a_at) / Fold change /veh RASL12 (11751679_a_at) / RFU CDKN2B (11736163_a_at) / Fold change /veh CDKN2B (11736163_a_at) / RFU PRF1 (11729649_at) / Fold change /veh PRF1 (11729649_at) / RFU, ZNF638 /// ZNF638-IT1 / Fold change vs veh, ZNF638 /// ZNF638-IT1 / RFU, PANK3 / Fold change vs veh, PANK3 / RFU, SH3YL1 / Fold change vs veh, SH3YL1 / RFU, ZEB2 / Fold change vs veh, ZEB2 / RFU, NRIP1 / Fold change vs veh, NRIP1 / RFU, PTTG1IP / Fold change vs veh, PTTG1IP / RFU, CAPN2 / Fold change vs veh, CAPN2 / RFU, MED14 / Fold change vs veh, MED14 / RFU, SNORA58 / Fold change vs veh, SNORA58 / RFU, C1orf63 / Fold change vs veh, C1orf63 / RFU, LRRFIP1 / Fold change vs veh, LRRFIP1 / RFU, NDUFAF7 / Fold change vs veh, NDUFAF7 / RFU, SLC12A2 / Fold change vs veh, SLC12A2 / RFU, IBTK / Fold change vs veh, IBTK / RFU, ESF1 / Fold change vs veh, ESF1 / Fold change vs veh, TMEM50B / RFU, TAOK1 / Fold change vs veh, TAOK1 / RFU, ACBD3 / Fold change vs veh, ACBD3 / RFU, TMA16 / Fold change vs veh, TMA16 / RFU, RWDD3 / Fold change vs veh, RWDD3 / RFU, BCAT1 / Fold change vs veh, BCAT1 / RFU, EDEM3 / Fold change vs veh, EDEM3 / RFU, TMEM33 / Fold change vs veh, TMEM33 / RFU, WDR75 / Fold change vs veh, WDR75 / RFU, AHCTF1 / Fold change vs veh, AHCTF1 / RFU, TFRC / Fold change vs veh, TFRC / RFU, ZDHHC17 / Fold change vs veh, ZDHHC17 / RFU, NOM1 / Fold change vs veh, NOM1 / RFU, ARL8B / Fold change vs veh, ARL8B / RFU, ZBTB11 / Fold change vs veh, ZBTB11 / RFU, TAMM41 / Fold change vs veh, TAMM41 / RFU, KIAA1704 /// LOC100996395 / Fold change vs veh, KIAA1704 /// LOC100996395 / RFU, ING1 / Fold change vs veh, ING1 / RFU, TRMT61B / Fold change vs veh, TRMT61B / RFU, FUBP3 / Fold change vs veh, FUBP3 / RFU, TP53 / Fold change vs veh, TP53 / RFU, TNKS2 / Fold change vs veh, TNKS2 / RFU, ZFP14 / Fold change vs veh, ZFP14 / RFU, ACTR2 / Fold change vs veh, ACTR2 / RFU, PPP3R1 / Fold change vs veh, PPP3R1 / RFU, PIK3R1 / Fold change vs veh, PIK3R1 / RFU, HNRNPA1 / Fold change vs veh, HNRNPA1 / RFU, RNF170 / Fold change vs veh, RNF170 / RFU, ZNF28 / Fold change vs veh, ZNF28 / RFU, RNGTT / Fold change vs veh, RNGTT / RFU, OGT / Fold change vs veh, OGT / RFU, BRD1 / Fold change vs veh, BRD1 / RFU, MARS / Fold change vs veh, MARS / RFU, ZNF655 / Fold change vs veh, ZNF655 / RFU, FAHD1 / Fold change vs veh, FAHD1 / RFU, BDP1 / Fold change vs veh, BDP1 / RFU, LRRCC1 / Fold change vs veh, LRRCC1 / RFU, ARID1A / Fold change vs veh, ARID1A / RFU, ZNF146 / Fold change vs veh, ZNF146 / RFU, ZNF330 / Fold change vs veh, ZNF330 / RFU, GPN3 / Fold change vs veh, GPN3 / RFU, C9orf123 / Fold change vs veh, C9orf123 / RFU, N4BP2L2 / Fold change vs veh, N4BP2L2 / RFU, ARFIP1 / Fold change vs veh, ARFIP1 / RFU, FAM179B / Fold change vs veh, FAM179B / RFU, BCL10 / Fold change vs veh, BCL10 / RFU, UHRF1BP1L / Fold change vs veh, UHRF1BP1L / RFU, BET1 / Fold change vs veh, BET1 / RFU, CNOT2 / Fold change vs veh, CNOT2 / RFU, ZNF268 / Fold change vs veh, ZNF268 / Fold change vs veh, ZNF507 / RFU, DGCR2 / Fold change vs veh, DGCR2 / RFU, WDSUB1 / Fold change vs veh, WDSUB1 / Fold change vs veh, HSP90B1 /// MIR3652 / RFU, ADSS / Fold change vs veh, ADSS / RFU, GK / Fold change vs veh, GK / RFU, ZNF148 / Fold change vs veh, ZNF148 / RFU, TAF9 / Fold change vs veh, TAF9 / RFU, SLC1A5 / Fold change vs veh, SLC1A5 / RFU, SLMO2 / Fold change vs veh, SLMO2 / RFU, ABCC4 / Fold change vs veh, ABCC4 / RFU, LOC101060439 /// RAP1B / Fold change vs veh, LOC101060439 /// RAP1B / RFU, RFX7 / Fold change vs veh, RFX7 / RFU, GTPBP10 / Fold change vs veh, GTPBP10 / RFU, CNEP1R1 / Fold change vs veh, CNEP1R1 / RFU, BIVM-ERCC5 /// ERCC5 / Fold change vs veh, BIVM-ERCC5 /// ERCC5 / RFU, ILF3 / Fold change vs veh, ILF3 / RFU 11762660_at / Fold change /veh 11762660_at / RFU VCAN (11757783_s_at) / Fold change /veh VCAN (11757783_s_at) / RFU DDX43 (11728927_at) / Fold change /veh DDX43 (11728927_at) / RFU KRT8 (11758188_x_at) / Fold change /veh KRT8 (11758188_x_at) / RFU NKD1 (11759106_at) / Fold change /veh NKD1 (11759106_at) / RFU SRD5A1 (11742802_a_at) / Fold change /veh SRD5A1 (11742802_a_at) / RFU TPSAB1 /// TPSB2 (11721975_s_at) / Fold change /veh TPSAB1 /// TPSB2 (11721975_s_at) / RFU GSTM3 (11746129_a_at) / Fold change /veh GSTM3 (11746129_a_at) / RFU IL23R (11737362_x_at) / Fold change /veh IL23R (11737362_x_at) / RFU TMEM51 (11727254_a_at) / Fold change /veh TMEM51 (11727254_a_at) / RFU PIWIL2 (11732686_x_at) / Fold change /veh PIWIL2 (11732686_x_at) / RFU ORM1 (11744905_x_at) / Fold change /veh ORM1 (11744905_x_at) / RFU CCDC152 (11743942_at) / Fold change /veh CCDC152 (11743942_at) / RFU ECM1 (11717891_a_at) / Fold change /veh ECM1 (11717891_a_at) / RFU IL23R (11748794_a_at) / Fold change /veh IL23R (11748794_a_at) / RFU TNFAIP8L3 (11732012_x_at) / Fold change /veh TNFAIP8L3 (11732012_x_at) / RFU MBOAT4 (11741988_at) / Fold change /veh MBOAT4 (11741988_at) / RFU 11764193_at / Fold change /veh 11764193_at / RFU TMEM53 (11763286_at) / Fold change /veh TMEM53 (11763286_at) / RFU MAGEB2 (11727129_at) / Fold change /veh MAGEB2 (11727129_at) / RFU TMEM200A (11744735_a_at) / Fold change /veh TMEM200A (11744735_a_at) / RFU CCDC152 (11751479_a_at) / Fold change /veh CCDC152 (11751479_a_at) / RFU FAM211A (11726209_a_at) / Fold change /veh FAM211A (11726209_a_at) / RFU RGS16 (11746705_a_at) / Fold change /veh RGS16 (11746705_a_at) / RFU VCAN (11755009_s_at) / Fold change /veh VCAN (11755009_s_at) / RFU RHOB (11743442_s_at) / Fold change /veh RHOB (11743442_s_at) / RFU RGS16 (11720943_a_at) / Fold change /veh RGS16 (11720943_a_at) / RFU RGS16 (11720944_at) / Fold change /veh RGS16 (11720944_at) / RFU, VPS4B / Fold change vs veh, VPS4B / RFU, CREB1 / Fold change vs veh, CREB1 / RFU, DNAJC13 / Fold change vs veh, DNAJC13 / RFU, GNAQ / Fold change vs veh, GNAQ / RFU, CDK5R1 / Fold change vs veh, CDK5R1 / RFU, ZRANB3 / Fold change vs veh, ZRANB3 / RFU, CUL4A / Fold change vs veh, CUL4A / RFU, CCNY / Fold change vs veh, CCNY / RFU, UFL1 / Fold change vs veh, UFL1 / RFU, COG3 / Fold change vs veh, COG3 / RFU, DIAPH2 / Fold change vs veh, DIAPH2 / RFU, SKA2 / Fold change vs veh, SKA2 / RFU, AFF3 / Fold change vs veh, AFF3 / RFU, LMF1 / Fold change vs veh, LMF1 / RFU, IPO11 / Fold change vs veh, IPO11 / RFU, DFFB / Fold change vs veh, DFFB / RFU, FOXP1 / Fold change vs veh, FOXP1 / RFU, CARD8 / Fold change vs veh, CARD8 / RFU, STRN3 / Fold change vs veh, STRN3 / RFU, ADK / Fold change vs veh, ADK / RFU, RASSF2 / Fold change vs veh, RASSF2 / RFU, WIPF1 / Fold change vs veh, WIPF1 / RFU, LARP1B / Fold change vs veh, LARP1B / RFU, RASA1 / Fold change vs veh, RASA1 / RFU, RB1 / Fold change vs veh, RB1 / RFU, PPFIA1 / Fold change vs veh, PPFIA1 / RFU, MAT2A / Fold change vs veh, MAT2A / RFU, CCT5 / Fold change vs veh, CCT5 / RFU, WDR92 / Fold change vs veh, WDR92 / RFU, CUX1 / Fold change vs veh, CUX1 / RFU, TTC7A / Fold change vs veh, TTC7A / RFU, TMEM135 / Fold change vs veh, TMEM135 / RFU, DEPTOR / Fold change vs veh, DEPTOR / RFU, CPM / Fold change vs veh, CPM / RFU, DNAJB6 / Fold change vs veh, DNAJB6 / RFU, CACNA2D3 / Fold change vs veh, CACNA2D3 / RFU, DTX4 / Fold change vs veh, DTX4 / RFU, TFCP2 / Fold change vs veh, TFCP2 / RFU, GMCL1 /// GMCL1P1 / Fold change vs veh, GMCL1 /// GMCL1P1 / RFU, AEBP2 / Fold change vs veh, AEBP2 / RFU, SNHG1 /// SNORD22 /// SNORD25 /// SNORD26 /// SNORD27 /// SNORD28 /// SNORD29 /// SNORD31 / Fold change vs veh, SNHG1 /// SNORD22 /// SNORD25 /// SNORD26 /// SNORD27 /// SNORD28 /// SNORD29 /// SNORD31 / Fold change (Aza/veh), C12orf56 (ProbeSet 11735607_a_at) / Fold change (ACY-1035/veh), C12orf56 (ProbeSet 11735607_a_at) / Fold change (Aza/veh), FGFR1OP (ProbeSet 11751329_s_at) / Fold change (ACY-1035/veh), FGFR1OP (ProbeSet 11751329_s_at) / Fold change (Aza/veh), VPS36 (ProbeSet 11739960_a_at) / Fold change (ACY-1035/veh), VPS36 (ProbeSet 11739960_a_at) / RFU SYPL1 (11715823_x_at) / Fold change /veh SYPL1 (11715823_x_at) / RFU IGFBP7 (11715501_s_at) / Fold change /veh IGFBP7 (11715501_s_at) / RFU REEP3 (11722064_at) / Fold change /veh REEP3 (11722064_at) / RFU IGLL1 (11728026_x_at) / Fold change /veh IGLL1 (11728026_x_at): dose or concentration left out as unconfirmed
Details: MV-4-11 cells, 48 hours

Nc1ccc(-c2cccs2)cc1NC(=O)c1ccc2c(c1)cc(C1CC1)n2CCN1CCOCC1 [ACY-1035]
Fold change /veh TMPRSS6 (11731388_a_at): 1.10
